These results are taken from US7928238B2, “1,2,3,4-tetrahydro-quinoline derivatives as CETP inhibitors” (Janssen Pharmaceutica NV, priority 2006, dated 2011).

A word on the IC50: it is the concentration that gives 50% inhibition. By inhibition is commonly meant the percentage by which the read-out fell short of the control.

Where “and” joins values, the source holds several entries; their conditions need not be identical. Identical values can stand only once. Like-named read-outs stand apart in the source and are kept apart here.

The target in the experiment is T1, CETP (Homo sapiens, UniProt P11597).
T1 construct: from tissue; host or cells: human plasma from normal volunteers
T1 sequence (P11597 18-493): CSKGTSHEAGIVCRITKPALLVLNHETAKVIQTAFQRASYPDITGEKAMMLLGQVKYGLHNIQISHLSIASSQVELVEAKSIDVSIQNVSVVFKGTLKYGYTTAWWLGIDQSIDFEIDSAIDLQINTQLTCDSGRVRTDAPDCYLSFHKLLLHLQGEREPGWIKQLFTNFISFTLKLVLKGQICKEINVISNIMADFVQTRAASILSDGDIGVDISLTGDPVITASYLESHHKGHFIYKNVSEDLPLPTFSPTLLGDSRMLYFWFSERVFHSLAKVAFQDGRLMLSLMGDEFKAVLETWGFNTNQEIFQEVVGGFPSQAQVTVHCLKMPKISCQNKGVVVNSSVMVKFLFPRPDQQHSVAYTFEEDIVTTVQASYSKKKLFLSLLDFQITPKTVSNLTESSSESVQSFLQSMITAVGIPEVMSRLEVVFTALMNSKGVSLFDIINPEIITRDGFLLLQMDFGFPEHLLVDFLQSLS
The experiment in a line: CETP in vitro assay (Amersham kit TRKQ7005; modified protocol in human plasma, [3H]CE-HDL transfer). Format: biochemical. Particulars: for IC50: from plots of % control versus compound concentration. On the procedure: The CETP inhibitory activity of the compounds was determined using a commercially available kit from Amersham Biosciences (Catalog #TRKQ7005).
Briefly, 80 μl of human plasma (obtained from normal volunteers), approximately 25 μg/ml (20 μl) of [^3H]CE-HDL (Amersham Biosciences from kit TRKQ7005) and 1 μl of compound dissolved in DMSO was incubated for at least 4 hrs at 37° C. and non-specific transfer was determined by incubating a corresponding plate at 4° C. (blank). After the incubation period, 10 μl of a solution of 1% Dextralip 50/0.5M MgCl2, pH 7.4 was added, vortexed and incubated at room temperature for 10 min. The plate was then centrifuged for 30 min at 10° C. at 300 rpm in a Sorvall RT6000B centrifuge. Fifty microliters of the supernatant was transferred to a Picoplate (Packard) containing 100 μl of Microscint 40 (Perkin Elmer) and mixed for 30 min using a plate mixer. The radioactivity was counted using a TopCount (Perkin Elmer) and the % control was determined in the samples using the following formula: % transfer relative to vehicle controls (% control)=[cpm blank−cpm test]/cpm blank/cpm control]×100. IC50s were calculated from plots of the % control versus compound concentration.

Where [1] appears, read: 1 μM compound, read-out: % Inhibition @ 1 μM.

As for `OC(CN1c2cccc(-c3cccc(OC(F)(F)F)c3)c2CCC1C1CCCCC1)C(F)(F)F` (stereo not drawn) [Compound 37, 3-[2-Cyclohexyl-5-(3-trifluoromethoxy-phenyl)-3,4-dihydro-2H-quinolin-1-yl]-1,1,1-trifluoro-propan-2-ol], for the setting “1 μM compound”, the “% Inhibition @ 1 μM” value was 11%. Take `OC(CF)CN1c2cccc(-c3cccc(OC(F)(F)F)c3)c2CCC1c1cccc(OC(F)(F)F)c1` (stereo not drawn) [Compound 50, 1-[2,5-Bis-(3-trifluoromethoxy-phenyl)-3,4-dihydro-2H-quinolin-1-yl]-3-fluoro-propan-2-ol]: the “% Inhibition @ 1 μM” value (1 μM compound) is listed as 13%. Regarding `CC(C)C(O)CN1c2cccc(-c3cccc(OC(F)(F)F)c3)c2CCC1c1cccc(OC(F)(F)F)c1` (stereo not drawn) [Compound 46, 1-[2,5-Bis-(3-trifluoromethoxy-phenyl)-3,4-dihydro-2H-quinolin-1-yl]-3-methyl-butan-2-ol], the “% Inhibition @ 1 μM” value (1 μM compound) is on record as 22%.

Turning to `OC(CN1c2cccc(-c3cccc(OC(F)(F)F)c3)c2CCC1c1cccc(OC(F)(F)C(F)F)c1)C(F)(F)F` (single isomer, unassigned) [Compound 2, 1,1,1-Trifluoro-3-[2-[3-(1,1,2,2-tetrafluoro-ethoxy)-phenyl]-5-(3-trifluoromethoxy-phenyl)-3,4-dihydro-2H-quinolin-1-yl]-propan-2-ol], the half-maximal inhibitory concentration (IC50) is 450 nM and 150 nM. For the setting “1 μM compound”, the “% Inhibition @ 1 μM” value came to 86%. As for `OC(CN1c2cccc(-c3cccc(F)c3)c2CCC1c1cccc(OC(F)(F)C(F)F)c1)C(F)(F)F` (stereo not drawn) [Compound 12, 1,1,1-Trifluoro-3-{5-(3-fluoro-phenyl)-2-[3-(1,1,2,2-tetrafluoro-ethoxy)-phenyl]-3,4-dihydro-2H-quinolin-1-yl}-propan-2-ol], for the setting “1 μM compound”, the “% Inhibition @ 1 μM” value was 41% and 64%. On to `Cc1cc(-c2cccc3c2CCC(c2cccc(OC(F)(F)C(F)F)c2)N3CC(O)C(F)(F)F)ccc1Cl` (stereo not drawn) [Compound 6, 3-{5-(4-Chloro-3-methyl-phenyl)-2-[3-(1,1,2,2-tetrafluoro-ethoxy)-phenyl]-3,4-dihydro-2H-quinolin-1-yl}-1,1,1-trifluoro-propan-2-ol], for which, where the note is “1 μM compound”, the “% Inhibition @ 1 μM” value was determined as 42%. The same measure, in the same setting: for `OC(CN1c2cccc(-c3cccc(OC(F)(F)F)c3)c2CCC1c1ccccc1OC(F)(F)C(F)F)C(F)(F)F` (stereo not drawn) [Compound 90, 1,1,1-Trifluoro-3-[2-[2-(1,1,2,2-tetrafluoro-ethoxy)-phenyl]-5-(3-trifluoromethoxy-phenyl)-3,4-dihydro-2H-quinolin-1-yl]-propan-2-ol] the value was 0%. Take `OC(CN1c2cccc(-c3cccc(OC(F)(F)F)c3)c2CCC1c1ccc(OC(F)(F)C(F)F)cc1)C(F)(F)F` (stereo not drawn) [Compound 22, 1,1,1-Trifluoro-3-[2-[4-(1,1,2,2-tetrafluoro-ethoxy)-phenyl]-5-(3-trifluoromethoxy-phenyl)-3,4-dihydro-2H-quinolin-1-yl]-propan-2-ol]: the “% Inhibition @ 1 μM” value (1 μM compound) turned out to be 14%. `C[C@@H](O)CN1c2cccc(-c3cccc(F)c3)c2CC[C@H]1c1cccc(OC(F)(F)F)c1` [Compound 56]: under setting [1], the inhibition at 1 µM worked out at 0%. Turning to `OC(CN1c2cccc(-c3cccc(OC(F)(F)F)c3)c2CCC1c1cccc(OC(F)(F)F)c1)C(F)(F)F` (stereo not drawn) [Compound 32, 3-[2,5-Bis-(3-trifluoromethoxy-phenyl)-3,4-dihydro-2H-quinolin-1-yl]-1,1,1-trifluoro-propan-2-ol], where the note is “1 μM compound”, the “% Inhibition @ 1 μM” value was 34%. Turning to `OC(CN1c2cccc(-c3ccc(C(F)(F)F)cc3)c2CCC1c1cccc(OC(F)(F)C(F)F)c1)C(F)(F)F` (stereo not drawn) [Compound 4, 1,1,1-Trifluoro-3-[2-[3-(1,1,2,2-tetrafluoro-ethoxy)-phenyl]-5-(4-trifluoromethyl-phenyl)-3,4-dihydro-2H-quinolin-1-yl]-propan-2-ol], the “% Inhibition @ 1 μM” value (1 μM compound) is 1%. `OC(CN1c2cccc(-c3ccc(OC(F)(F)F)cc3)c2CCC1c1cccc(OC(F)(F)C(F)F)c1)C(F)(F)F` (stereo not drawn) [Compound 8, 1,1,1-Trifluoro-3-[2-[3-(1,1,2,2-tetrafluoro-ethoxy)-phenyl]-5-(4-trifluoromethoxy-phenyl)-3,4-dihydro-2H-quinolin-1-yl]-propan-2-ol]: where the note is “1 μM compound”, the “% Inhibition @ 1 μM” value is 29% and 36%. Take `C[C@@H](O)CN1c2cccc(-c3cccc(Cl)c3)c2CC[C@H]1c1cccc(OC(F)(F)F)c1` [Compound 41]: the inhibition at 1 µM under setting [1] came to 3%.

The compound `COc1cccc(C2CCc3c(-c4cccc(OC(F)(F)F)c4)cccc3N2CC(O)C(F)(F)F)c1` (stereo not drawn) [Compound 25, 1,1,1-Trifluoro-3-[2-(3-methoxy-phenyl)-5-(3-trifluoromethoxy-phenyl)-3,4-dihydro-2H-quinolin-1-yl]-propan-2-ol] registered an IC50 of 582 nM. The “% Inhibition @ 1 μM” value (1 μM compound) is 59% and 74%. With `OC(CN1c2cccc(-c3cccc(OC(F)(F)F)c3)c2CCC1c1cccc(F)c1)C(F)(F)F` (stereo not drawn) [Compound 24, 1,1,1-Trifluoro-3-[2-(3-fluoro-phenyl)-5-(3-trifluoromethoxy-phenyl)-3,4-dihydro-2H-quinolin-1-yl]-propan-2-ol], where the note is “1 μM compound”, the “% Inhibition @ 1 μM” value came out at 4%. `Oc1cccc(-c2cccc3c2CCC(c2cccc(OC(F)(F)C(F)F)c2)N3CC(O)C(F)(F)F)c1` (stereo not drawn) [Compound 42, 3-[2-[3-(1,1,2,2-Tetrafluoro-ethoxy)-phenyl]-1-(3,3,3-trifluoro-2-hydroxy-propyl)-1,2,3,4-tetrahydro-quinolin-5-yl]-phenol] showed an IC50 of 231 nM. Moreover, the “% Inhibition @ 1 μM” value (1 μM compound) is 97% and 106%.

As for `OC(CN1c2cccc(-c3cccc(OC(F)(F)F)c3)c2CCC1c1cccc(C(F)(F)F)c1)C(F)(F)F` (stereo not drawn) [Compound 17, 1,1,1-Trifluoro-3-[5-(3-trifluoromethoxy-phenyl)-2-(3-trifluoromethyl-phenyl)-3,4-dihydro-2H-quinolin-1-yl]-propan-2-ol], the IC50 was 84 nM and 202 nM. For the same compound, the “% Inhibition @ 1 μM” value (1 μM compound) is 43% and 55%. In addition, the inhibition at 1 µM under setting [1] came out at 54%.

For `O=C(CN1CCOCC1)N1c2cccc(-c3cccc(OC(F)(F)F)c3)c2CCC1c1cccc(OC(F)(F)F)c1` (stereo not drawn) [Compound 88, 1-[2,5-Bis-(3-trifluoromethoxy-phenyl)-3,4-dihydro-2H-quinolin-1-yl]-2-morpholin-4-yl-ethanone], the inhibition at 1 µM under setting [1] was 0%. Regarding `OC(CN1c2cccc(-c3cccc(F)c3)c2CCC1c1cccc(OC(F)(F)F)c1)C(F)(F)F` (stereo not drawn) [Compound 58, 1,1,1-Trifluoro-3-[5-(3-fluoro-phenyl)-2-(3-trifluoromethoxy-phenyl)-3,4-dihydro-2H-quinolin-1-yl]-propan-2-ol], where the note is “1 μM compound”, the “% Inhibition @ 1 μM” value is given as 40%. Take `O[C@@H](CN1c2cccc(-c3cccc(OC(F)(F)F)c3)c2CC[C@H]1c1cccc(OC(F)(F)C(F)F)c1)C(F)(F)F` [Compound 80, (2S, αS)-3,4-Dihydro-2-[3-(1,1,2,2-tetrafluoroethoxy)phenyl]-5-[3-(trifluoromethoxy)phenyl]-α-(trifluoromethyl)-1(2H)-quinolineethanol]: the inhibition at 1 µM under setting [1] was 20%. On to `C[C@H](O)CN1c2cccc(-c3cccc(OC(F)(F)F)c3)c2CC[C@H]1c1cccc(OC(F)(F)C(F)F)c1` [Compound 62], for which, under setting [1], the inhibition at 1 µM came to 30%. Consider `OC(CN1c2cccc(-c3cccc(C(F)(F)F)c3)c2CCC1c1cccc(OC(F)(F)C(F)F)c1)C(F)(F)F` (stereo not drawn) [Compound 14], for which the “% Inhibition @ 1 μM” value (1 μM compound) is listed as 37%. Turning to `OC(CN1c2cccc(-c3cccc(Cl)c3)c2CCC1c1cccc(OC(F)(F)C(F)F)c1)C(F)(F)F` (stereo not drawn) [Compound 15, 3-{5-(3-Chloro-phenyl)-2-[3-(1,1,2,2-tetrafluoro-ethoxy)-phenyl]-3,4-dihydro-2H-quinolin-1-yl}-1,1,1-trifluoro-propan-2-ol], the IC50 was 68 nM and 59 nM. Under “1 μM compound”, the “% Inhibition @ 1 μM” value is listed as 66%. The inhibition at 1 µM (read-out: % Inhibition @ 1 μM, 1 μM compound) came to 68%.

As to `OC(CN1c2cccc(-c3cccc(OC(F)(F)F)c3)c2CCC1c1ccc(OC(F)(F)C(F)F)cc1)C(F)(F)F` (stereo not drawn) [Compound 21, 1,1,1-Trifluoro-3-[2-[4-(1,1,2,2-tetrafluoro-ethoxy)-phenyl]-5-(3-trifluoromethoxy-phenyl)-3,4-dihydro-2H-quinolin-1-yl]-propan-2-ol], the “% Inhibition @ 1 μM” value (1 μM compound) is 5%. `OC(CN1c2cccc(-c3cccs3)c2CCC1c1cccc(OC(F)(F)C(F)F)c1)C(F)(F)F` (stereo not drawn) [Compound 74, 1,1,1-Trifluoro-3-{2-[3-(1,1,2,2-tetrafluoro-ethoxy)-phenyl]-5-thiophen-2-yl-3,4-dihydro-2H-quinolin-1-yl}-propan-2-ol]: the IC50 was 380 nM and 255 nM. For the same compound, the “% Inhibition @ 1 μM” value (1 μM compound) is 60% and 66%.
